Data reported in US9688709B2, “Phosphaplatins and their use for treatment of cancers” (OHIO UNIVERSITY, priority 2010, dated 2017).
Read-outs that look alike come from different tables or passages of the source.

Columns and labels:
[1] = tested on: human ovarian cancer OVCAR-10 xenograft; test: In vivo efficacy, OVCAR-10 mouse xenograft; set-up: species or system mice; settings: 40 mg/kg body weight, during the treatment time
Description: Stable human clonal ovarian cancer cell lines OVCAR-10 and head and neck cancer UMSCC10b were grown separately in cell culture until 80-90% confluency was reached. Trypsin (GIBCO/BRL, Grand Island, N.Y.) was used to detach adherent cells. Trypsinized cells were thoroughly washed with PBS (Phosphate Buffered Saline) to remove trypsin. Efficacy of phosphaplatin compounds were evaluated by subcutaneously implanting human OVCAR-10 and UMSCC-10b xenograft in SCID Hairless OutBred, SHO-Prkdc^scidHr^hr, (Charles River Labs, Wilmington, Mass.) mice, NIH (NIH III: NIHBNX-F; NIHS-Lystbg Foxnlnu Btkxid, 4-week old female, Taconic (Rensselaer, N.Y.) mice.
(§1) Female SCID/NIH mice 4-5 weeks old were acclimated for one week before initiation of efficacy trials. Cancer cells were re-suspended in PBS and all mice except for negative control mice were injected subcutaneously with from 1×10^6 cells/0.10 mL to 5×10^6 cells/0.10 mL in PBS. The tumor size was evaluated as a function of time. The mice were examined daily for tumor growth. Tumors were measured using digital calipers. The tumor volume was calculated by the formula (W^2×L)/2, where W is the tumor measurement at the widest point, and L is the tumor dimension at the longest point, where the volume of the tumor in mm^3 is equivalent to the weight in mg.
After approximately 2 weeks of the subcutaneous injection of cancer cells, the tumors that had reached a distinguishable tumor sizes (approximately 100 mm^3 to 200 mm^3), phosphaplatin compounds of desired doses were administered intra-peritoneally. These administrations were done one time on day 1, once on day 3, and once on day 5.
Each group of xenograft mice was treated with phosphaplatin compounds, and a matched set was treated with vehicle/placebo (PBS solution) and mock injection (as a control for stress response). […] The xenograft SCID mice/NIH were monitored every day for any adverse events in their health by measuring weight loss/gain and food consumption. Measurements were stopped and the study was ended when the tumor size exceeded 3000 mm^3. […]

[2] = tested on: human ovarian cancer A2780 xenograft; test: In vivo efficacy, A2780 mouse xenograft; set-up: species or system mice
Description: Stable clonal ovarian cancer cell lines A2780 were grown in cell culture until 80-90% confluency was reached. Trypsin (GIBCO/BRL, Grand Island, N.Y.) was used to detach adherent cells. Trypsinized cells were thoroughly washed with PBS (Phosphate Buffered Saline) to remove trypsin. Efficacy of phosphaplatin compounds were evaluated using human ovarian cancer, A2780 by subcutaneous xenograft in SCID Hairless OutBred, SHO-Prkdc^scidHr^hr, (Charles River Labs, Wilmington, Mass.) mice. Female SCID mice 4 to 5 weeks old were acclimated for one week before initiation of efficacy trials.
as §1, with “Cancer” for “Female SCID/NIH mice 4-5 weeks old were acclimated for one week before initiation of efficacy trials. Cancer”, “PBS,” for “PBS”, “PBS and were” for “PBS. The tumor size was”, “evaluated for tumors” for “evaluated”, “time using sterile 26 gauge needles and syringes.” for “time.”, “mg. […]” for “mg.”
The xenograft SCID mice were monitored every day for any adverse events in their health by measuring weight loss/gain and food consumption. […]

[3] = Stability in aqueous solution at neutral pH (31P-NMR); assay type: physicochemical
Text: Typically, no decomposition is observed within seven days after dissolving the phosphaplatin compounds in water and observing by ^31P-NMR spectroscopy.

Row | SMILES | tumor response [1] | tumor response ([2]; 10 mg/kg qodx3, first ten days of treatment) | stability at neutral pH in aqueous solution [3] | tumor response ([2]; 40 mg/kg qodx3, first ten days of treatment) | stability at neutral pH in aqueous solution ([3]; dissolved in water, observed by 31P-NMR, seven days)
1 | O=P1(O)OP(=O)(O)[O][Pt]2([OH])([OH])([NH][C@@H]3CCCC[C@H]3[NH]2)[O]1 [(1R,2R)-pyrodach-4, ((1R,2R)-1,2-cyclohexanediamine)-trans-dihydroxo(dihydrogenpyrophosphato)platinum (IV)] | tumor regression | tumor regression | remarkable stability |  | 
2 | O=P1(O)OP(=O)(O)[O][Pt]2([NH][C@@H]3CCCC[C@H]3[NH]2)[O]1 (stereo partly drawn) [(1R,2R)-pyrodach-2, ((1R,2R)-1,2-cyclohexanediamine)(dihydrogenpyrophosphato)platinum (II)] | tumor regression |  |  | tumor regression | remarkable stability
